# Assay results: patent publication US20230128889A1, “REL/RELA/SPOT SMALL MOLECULES MODULATORS AND SCREENING METHODS” (priority 2020, published 2023)
# How the values were obtained:
# [1] = system: Rel hydrolase (HD); test: Inhibition of Rel hydrolase activity: decrease of radioactive (p)ppGpp spot on TLC; format: biochemical; details: radioactive (p)ppGpp incubated with enzyme, with vs without compound
# Protocol: (§1) As indicated above, the “Yes/No” in the 5th and 6th columns of TABLES A to F indicates whether there is, or respectively is not an inhibition of the synthetase (ST) and/or hydrolase (HD) activity. […] The action of a candidate compound is evaluated based on its effect on the production of (p)ppGpp. Therefore, in order to assess the potential influence of a candidate compound on synthesis activity, the enzyme was mixed with GDP or GTP and radioactive ATP to produce (p)ppGpp in absence or presence of the candidate compound. Subsequently, the reaction is developed by thin layer chromatography (TLC). In an alternative assay that enables determining the effect of a compound on the hydrolysis activity, radioactive (p)ppGpp is incubated with the enzyme and any decrease of the (p)ppGpp spot on TLC is evaluated when the assay is conducted in presence of the compound and compared to control conditions where no candidate compound is added during incubation.
# [2] = system: Rel synthetase (ST); test: Inhibition of Rel synthetase activity: (p)ppGpp production from GDP or GTP and radioactive ATP, TLC; format: biochemical; details: enzyme with GDP or GTP and radioactive ATP, absence or presence of compound
# Protocol: as §1
Compound,HD (inhibition of the hydrolase activity) [1],ST (inhibition of the synthetase activity) [2]
Cc1c(C(=O)N(CCC(=O)O)CC2CCCO2)sc2ncn(C)c(=O)c12 (stereo not shown) [Compound 53],Yes,No
O=c1oc2cc(OCc3nnn[nH]3)ccc2cc1-c1ccc(F)cc1 [Compound 14],No,Yes
Cc1nnc2ccc(N3CCN(C(=O)Nc4ccccc4[N+](=O)[O-])CC3)nn12 [Compound 56],Yes,No
Cc1c(Cc2ccccc2)c(=O)oc2cc(OCc3nnn[nH]3)ccc12 [Compound 18],Yes,Yes
Cc1c(Cc2ccccc2)c(=O)oc2cc(OCc3nnn[nH]3)c(Cl)cc12 [Compound 19],Yes,Yes
O=c1oc2cc(OCc3nnn[nH]3)ccc2cc1-c1ccccc1 [Compound 13],No,Yes
Cc1cc(CCc2nnn[nH]2)c2c(C)c(Cc3ccccc3)c(=O)oc2c1 [Compound 17],Yes,Yes
O=C(O)C1CCN(S(=O)(=O)c2ccc3[nH]c(=O)oc3c2)CC1 [Compound 42],Yes,Yes
O=C(O)Cn1cc(/C=C2/C(=O)Nc3ccccc32)c2ccccc21 [Compound 40],No,Yes
O=C(O)CCC(=Cc1ccc(OCC(=O)O)cc1)c1nc2ccccc2s1 [Compound 44],Yes,Yes
O=[N+]([O-])c1nn(Cc2cccc(-c3nc4c5cn[nH]c5ncn4n3)c2)cc1Cl [Compound 71],Yes,Yes
O=C(Nc1nnn[nH]1)c1cc(-c2ccc3c(c2)CCO3)[nH]n1 [Compound 32],Yes,No
O=C1OCc2ccc(-c3ccc(/C=N/Nc4nnn[nH]4)o3)cc21 [Compound 45],Yes,Yes
Cc1c(Br)c([N+](=O)[O-])nn1CC(=O)Nc1ccc(Cl)cc1Cl [Compound 67],Yes,Yes
Cc1c(CC(=O)O)c(=O)oc2cc(O)cc(O)c12 [Compound 1],Yes,No
O=C(O)CCS(=O)(=O)c1ccc2[nH]c(=O)oc2c1 [Compound 27],Yes,No
O=C(O)CNS(=O)(=O)c1ccc2c3c(cccc13)C(=O)N2 [Compound 48],Yes,Yes
O=C(Nc1nnn[nH]1)c1ccc2c(Br)cccc2c1 [Compound 22],Yes,Yes
O=c1oc2cc(OCc3nnn[nH]3)ccc2cc1-c1ccc(Cl)cc1 [Compound 20],Yes,Yes
O=C(Nc1ccc(-n2cnc3ccccc32)nc1)c1ccc([N+](=O)[O-])o1 [Compound 43],Yes,Yes
Cn1c(=O)[nH]c(=O)c2[nH]c(SCC(=O)O)nc21 [Compound 52],Yes,No
O=C(O)CC(CNC(=O)CCn1nnc2ccccc2c1=O)c1ccc(Cl)cc1 (stereo not shown) [Compound 4],Yes,No
Fc1cccc(-c2nnn(Cc3nnn[nH]3)n2)c1 [Compound 58],Yes,No
O=C(O)CNS(=O)(=O)c1ccc2c(c1)NC(=O)CS2 [Compound 3],Yes,No
O=C(O)C[C@H](NC(=O)COc1ccc2nc3n(c(=O)c2c1)CCC3)C(=O)O [Compound 9],yes,no
CC(C(=O)O)C(NC(=O)C(C)n1nnc(-c2ccccc2)n1)c1ccccc1 (stereo not shown) [Compound 61],Yes,No
O=C(O)CCCC(=O)Nc1cc2[nH]c(=O)[nH]c2cc1N1CCCC1 [Compound 35],yes,no

Compound,HD (inhibition of the hydrolase activity) [1],ST (inhibition of the synthetase activity) [2]
Cc1ccc(CC(=O)Nc2ccc(N3CCN(CC(=O)NC(C)(C)C)CC3)cc2C(=O)O)cc1 [Compound 70],Yes,Yes
COc1ccc(C=C2C(=O)Nc3ccc(C(=O)O)cc32)cc1 [Compound 37],No,Yes
CC(Nc1ccc(F)cc1[N+](=O)[O-])c1ccc2[nH]c(=O)[nH]c2c1 (stereo not shown) [Compound 26],Yes,No
O=C(O)/C=C/c1cccc(NC2C(=O)Nc3ccccc32)c1 (stereo not shown) [Compound 31],Yes,No
O=C(Cc1ccc(Cl)cc1)Nc1ccc(-c2ccc(NC(=O)Cc3ccc(Cl)cc3)c(C(=O)O)c2)cc1C(=O)O [Compound 72],Yes,Yes
O=C(COc1ccc2ccccc2c1)N1N=C2/C(=C/c3cccc([N+](=O)[O-])c3)CCCC2C1c1cccc([N+](=O)[O-])c1 (stereo not shown) [Compound 8],Yes,No
O=C(O)CCNS(=O)(=O)c1cc2c3c(cccc3c1)C(=O)NC2=O [Compound 51],Yes,Yes
O=C1c2cccc3cc([N+](=O)[O-])cc(c23)C(=O)N1O [Compound 50],No,Yes
O=C1c2ccccc2C(=O)N1CCCc1nc(-c2cccc([N+](=O)[O-])c2)no1 [Compound 33],Yes,No
O=C(Nc1ccc(Cl)c([N+](=O)[O-])c1)c1ccc(-c2cccc(Cl)c2Cl)o1 [Compound 68],Yes,Yes
CC(NC(=O)c1cc([N+](=O)[O-])c[nH]1)c1ccc2ccccc2c1 (stereo not shown) [Compound 23],Yes,Yes
Cc1c(Cc2ccccc2)c(=O)oc2cc(OCC(=O)O)ccc12 [Compound 10],No,Yes
CCCCCCc1c(C)c2ccc(OCc3nnn[nH]3)cc2oc1=O [Compound 16],Yes,Yes
O=C1Nc2ccccc2/C1=N\c1cccc([N+](=O)[O-])c1 [Compound 39],No,Yes
COc1ccc(CC(=O)Nc2ccc(N3CCC(N4CCCCC4)CC3)cc2C(=O)O)cc1 [Compound 73],Yes,Yes
O=C(O)C1Cc2ccccc2CN1C(=O)Cn1nnc2ccccc21 (stereo not shown) [Compound 6],Yes,No
O=C(c1cc(-c2cccc(Cl)c2)[nH]n1)N1CCc2ccc([N+](=O)[O-])cc21 [Compound 30],Yes,No
O=[N+]([O-])c1ccccc1OCCn1nnc(-c2ccccc2)n1 [Compound 60],Yes,No
COc1ccc2[nH]cc(CCNC(=O)c3nccnc3C(=O)O)c2c1 [Compound 29],Yes,No
Cc1cc(C(=O)N2CCN(c3ncccn3)CC2)c(N)c([N+](=O)[O-])c1 [Compound 63],Yes,No
O=[N+]([O-])c1ccc(Sc2nnc3c(n2)[nH]c2ccccc23)c([N+](=O)[O-])c1 [Compound 64],Yes,No
Cc1ccc(CC(=O)Nc2ccc(N3CCC(N4CCCCC4)CC3)cc2C(=O)O)cc1 [Compound 74],Yes,Yes
Cc1ccccc1-n1c(SCC(=O)NC(=O)c2cccc([N+](=O)[O-])c2)nnc1-c1ccncc1 [Compound 65],Yes,No
O=C1CCc2cc(-c3csc(NC(=O)c4cccc([N+](=O)[O-])c4)n3)ccc2N1 [Compound 7],Yes,No
O=C(O)c1cc(NS(=O)(=O)c2ccc3c4c(cccc24)C(=O)N3)cnc1Cl [Compound 49],Yes,Yes
CSCCC(NS(=O)(=O)c1ccc2c3c(cccc13)C(=O)N2)C(=O)O (stereo not shown) [Compound 47],Yes,Yes
